Like-named read-outs stand apart in the source and are kept apart here.
Columns and labels:
[1] = system: Panc-1 Human Pancreatic Carcinoma Xenografts; assay: Antitumor activity in female nude mice bearing Panc-1 xenografts; conditions: MLN8237 30 mg/kg QD for 21 days (oral per title; b268 prints SC); Day 63; p<0.001 vs vehicle
Description: Experimental Design: Low passage (passage TC08) Panc-1 cells (ATCC, Manassas, Va., USA) were grown in Roswell Park Memorial Institute (RPMI)-1640 (ATCC, Manassas, Va., USA) 10% Fetal Bovine Serum (PAA Laboratories PTY LTD, Morningside, QLD, Australia) and supplied at a concentration of 5.0×10^7 cells/mLl in Dulbecco's phosphate-buffered saline (DPBS) (Invitrogen-Gibco, Grand Island, N.Y., USA). Cells were mixed 1:1 with Matrigel support (BD Biosciences, Bedford, Mass., USA) and 5.0×10^6 Panc-1 cells/animal (0.2 mL injection volume) were implanted SC into the right flank of female Balb/c nude mice.
Tumor growth was monitored twice weekly using calipers and the mean tumor volume was calculated using the formula (0.5×[length×width^2]). […] Tumor size and body weight were measured twice weekly and the study was terminated on Day 63 when tumors in the control group reached approximately 1127.8 mm^3. Tumor volumes and BW of animals in the combination treatment group were monitored up to Day 111.
Antitumor activity was determined by calculating the percent TGI ([mean tumor volume of the control group—mean tumor volume of a treated group]/mean tumor volume of the control group) on Day 63. Treatment started on Day 1 and lasted through Day 21. Maximum percent BWL was evaluated during the treatment period (Day 1-Day 21). […]

A375 [2] = assay: Cells with greater than 4N DNA by flow cytometry, A375
Description: (§1) A2780, A375, PC-3 and SK-MEL-2 cells were seeded at 2×10^4 cells/ml and grown on 6 well cell culture dishes overnight at 37° C. with 5% CO2. […] At the relevant time points cells were harvested with trypsin ethylenediaminetetraacetic acid (EDTA) 1× (Gibco/Invitrogen [Carlsbad, Calif., USA]), washed once with phosphate-buffered saline (PBS), fixed in 70% ethanol and stored at −20° C. for at least 24 hours. The cells were washed once more in PBS, then resuspended in 50 μg/ml propidium iodide (Invitrogen, [Carlsbad, Calif., USA]) and 30 μg/ml ribonuclease (RNAse) A (Sigma [St Louis, Mo., USA]) in PBS and incubated for 30 minutes at room temperature protected from light. Cell cycle distributions were determined by measuring deoxyribonucleic acid (DNA) content using flow cytometry on a FACS Canto II flow cytometer (Becton Dickinson [San Jose, Calif., USA]) and samples were analyzed using [sequence] software (Becton Dickinson [San Jose, Calif., USA]).

A2780 [3] = assay: Cells with greater than 4N DNA by flow cytometry, A2780
Description: as §1

[4] = system: NCI-H23 Non Small Cell Lung Carcinoma Xenografts; assay: Anti-tumor activity in female nude mice bearing NCI-H23 xenografts; conditions: for TGI: Day 99; for TFS (tumor-free survivors): Day 135, n=8
Description: MLN8237 was prepared in 10% hydroxypropyl-beta-cyclodextrin (HP-β-CD) (Sigma, St. Louis, Mo., USA)+1% NaHCO3 (Sigma, St. Louis, Mo., USA) every 5 days and stored at approximately 25° C. in the dark.
5.0×10^6 NCI-H23 cells/animal (0.1 ml injection volume) were implanted SC into the right flank of Balb/c nude mice.
Experimental Design: 7-9 week old female Balb/c nude mice were inoculated subcutaneously in the flank (cell suspension) with 5.0×10^6 NCI-H23 cells. Tumor growth was monitored with vernier calipers. The mean tumor volume was calculated using the formula V=W^2×L/2. When the mean tumor volume (MTV) reached approximately 105 mm^3, the animals were randomized into 8 treatment groups (n=8/group). […] Tumor growth and body weight were measured twice per week. Tumor growth inhibition and body weight change were calculated on Day 99 of treatment.
Antitumor activity was determined by calculating the percent TGI ([mean tumor volume of the control group−mean tumor volume of a treated group]/mean tumor volume of the control group) on Day 99. Treatment started on Day 1 for 21 days. […] The use of Day 99 allows us to evaluate tumor response and statistically compare the ΔAUC for each group over the regrowth period.
Additional endpoints used to evaluate efficacy were: complete and partial tumor response CR and PR), and the number of tumor-free survivors (TFS) at the end of the study.
Statistical Analysis: Statistical analysis was performed with a linear mixed effects regression model. This model takes into account the differences in trends of tumor growth between control and treated samples. Differences among mice were treated as random effects, and a compound symmetry covariance structure was used to model the variability between repeated tumor measurements on each mouse. Treatment comparisons were performed by using the fitted curves from the model to calculate the changes in the areas under the tumor volume-versus-time curves (ΔAUCs). The significance of the ΔAUC was assessed using permutation testing. P-values <0.05 were considered significant.
The change in AUC relative to the control was calculated for both single agent treatment groups as well as the combination group.

A2780 cells = assay: Quantification of sub-diploid cells by flow cytometry; conditions: A2780, 96 hours, single agents: TAK-733 50 nM or 200 nM, MLN8237 20 nM (50 nM MLN8237 sample was the exception), FIG. 2A
Description: Sub-diploid cells were gated as those with a lower level of propidium iodide fluorescence than cells with 2N DNA content.
as §1

PC3 = assay: Cells with greater than 4N DNA by flow cytometry, PC3
Description: as §1

PC-3 = assay: BrdU proliferation assay, PC-3; conditions: Homo sapiens, PC-3, 96 h
Description: (§2) A2780, A375, PC-3, and SK-MeI-2 human tumor cell lines were seeded at 2.0×10^3, 1.0×10^3, 4.0×10^3 and 2.0×10^3 cells per well, respectively, in 80 μL of the appropriate cell culture growth media. Plating densities were chosen to ensure optimal linear growth over 120 hours. After 20 hours, 10 μL of each compound was added to the cells in a matrix with dose responses of both agents. […] Each matrix was generated in triplicate with each replicate on a separate plate.
(§3) Cell proliferation of each cell line was measured using the cell proliferation enzyme-linked immunosorbent assay (ELISA), 5-bromo-2-deoxyuridine (BrdU) colorimetric kit according to the manufacturer's instructions (Roche [Mannheim, Germany]). The assay measures cell proliferation by quantifying BrdU incorporation into replicating deoxyribonucleic acid (DNA). Briefly, each well was incubated with 10 μL of BrdU labeling reagent for 2 hours at 37° C. in a humidified cell culture chamber. After aspiration of the labeling media, the plates were wrapped in foil and kept at 4° C. to assay at a future time. The cells were fixed and denatured by adding 100 µL of ethanol to each well and incubated for 30 minutes at room temperature. The ethanol was aspirated and 50 μl of blocking reagent (Roche [Mannheim, Germany]) was added to the cells and incubated for 30 minutes. 100 μL of peroxidase-conjugated anti BrdU antibody ([anti-BrdU-POD]; 1:100 in antibody dilution buffer) was added to the cells. The cells were incubated with the antibody for 120 minutes at room temperature. The cells were then washed 2× with 150 μL of wash buffer per well and 100 μL of tetramethyl benzidine was then added. The cells were incubated for 15 to 30 minutes at room temperature prior to spectrophotometric analysis. A SpectraMax Plus 384 plate reader (Molecular Devices [Sunny Vale Calif., USA]) or WALLAC 1420 Workstation (Perkin Elmer [Turku, Finland]) were used to measure the absorbance of each well at 395 or 405 nm, respectively, depending on the machine used. The A2780 and A375 cell lines were measured using the SpectraMax Plus at 395 nm, while the PC-3 and SK-Mel-2 cell lines were measured using the WALLAC 1420 Workstation at 405 nm. Analysis of the data was performed using GraphPad Prism 5.0.

A375 [5] = assay: BrdU proliferation assay, A375; conditions: Homo sapiens, A-375, 96 h
Description: as §2, §3

SKMEL-2 [6] = assay: BrdU proliferation assay, SKMEL-2; conditions: Homo sapiens, SK-MEL-2, 96 h
Description: as §2, §3

A2780 [7] = assay: BrdU proliferation assay, A2780; conditions: Homo sapiens, A2780, 96 h
Description: as §2, §3

SKMEL-2 [8] = assay: Cells with greater than 4N DNA by flow cytometry, SKMEL-2
Description: as §1

[9] = MLN8237 30 mg/kg PO for 21 days, mice of 8

COc1cc(Nc2ncc3c(n2)-c2ccc(Cl)cc2C(c2c(F)cccc2OC)=NC3)ccc1C(=O)[O-].O.[Na+] [MLN8237]
TGI [1]: −6.4%
Percentage of cells with greater than 4N DNA (A375 [2]; A375, 24 Hr, DMSO 0.9): 16%
Percentage of cells with greater than 4N DNA (A375 [2]; A375, 48 Hr, DMSO 1.4): 18.6%
Percentage of cells with greater than 4N DNA (A2780 [3]; A2780, 24 Hr, DMSO 1.7): 9.6%
Percentage of cells with greater than 4N DNA (A2780 [3]; A2780, 48 Hr, DMSO 2.2): 13%
TGI ([4]; MLN8237 20 mg/kg PO QD for 21 days, p>0.05 vs control): 43.4%
TFS (tumor-free survivors) ([4]; MLN8237 20 mg/kg PO QD for 21 days): 2
CR (complete tumor response) ([4]; MLN8237 20 mg/kg PO QD for 21 days, mice of 8): 2 of 8
TGI ([4]; MLN8237 30 mg/kg PO for 21 days, p<0.05 vs vehicle): 73.3%
TFS (tumor-free survivors) ([4]; MLN8237 30 mg/kg PO for 21 days): 2
CR (complete tumor response) [4, 9]: 4 of 8
PR (partial tumor response) [4, 9]: 4 of 8
percentage of sub-diploid cells relative to DMSO (A2780 cells): neither TAK-733 nor MLN8237 caused appreciable increases
Percentage of cells with greater than 4N DNA (PC3; PC3, 24 Hr, DMSO 10.5): 21%
Percentage of cells with greater than 4N DNA (PC3; PC3, 48 Hr, DMSO 10.7): 30.5%
IC50 (PC-3; read-out: MLN8237 IC50, PC-3, TAK-733 0.0 nM): 0.134 µM
IC50 (PC-3; read-out: MLN8237 IC50, PC-3, TAK-733 16 nM): 0.084 µM
IC50 (PC-3; read-out: MLN8237 IC50, PC-3, TAK-733 80 nM): 0.093 µM
IC50 (PC-3; read-out: MLN8237 IC50, PC-3, TAK-733 400 nM): 0.1 µM
IC50 (PC-3; read-out: MLN8237 IC50, PC-3, TAK-733 2000 nM): 0.074 µM
IC90 (PC-3; read-out: MLN8237 IC90, PC-3, TAK-733 0.0 nM): > 5 µM
IC90 (PC-3; read-out: MLN8237 IC90, PC-3, TAK-733 16 nM): > 5 µM
IC90 (PC-3; read-out: MLN8237 IC90, PC-3, TAK-733 80 nM): 1.06 µM
IC90 (PC-3; read-out: MLN8237 IC90, PC-3, TAK-733 400 nM): 0.89 µM
IC90 (PC-3; read-out: MLN8237 IC90, PC-3, TAK-733 2000 nM): 0.569 µM
IC50 (A375 [5]; read-out: MLN8237 IC50, A375, TAK-733 0.0 nM): 0.059 µM
IC50 (A375 [5]; read-out: MLN8237 IC50, A375, TAK-733 0.0001 nM): 0.073 µM
IC50 (A375 [5]; read-out: MLN8237 IC50, A375, TAK-733 0.001 nM): 0.063 µM
IC50 (A375 [5]; read-out: MLN8237 IC50, A375, TAK-733 0.01 nM): 0.058 µM
IC50 (A375 [5]; read-out: MLN8237 IC50, A375, TAK-733 0.1 nM): 0.062 µM
IC50 (A375 [5]; read-out: MLN8237 IC50, A375, TAK-733 1 nM): 0.065 µM
IC90 (A375 [5]; read-out: MLN8237 IC90, A375, TAK-733 0.0 nM): 0.53 µM
IC90 (A375 [5]; read-out: MLN8237 IC90, A375, TAK-733 0.0001 nM): 0.554 µM
IC90 (A375 [5]; read-out: MLN8237 IC90, A375, TAK-733 0.001 nM): 0.408 µM
IC90 (A375 [5]; read-out: MLN8237 IC90, A375, TAK-733 0.01 nM): 0.882 µM
IC90 (A375 [5]; read-out: MLN8237 IC90, A375, TAK-733 0.1 nM): 0.325 µM
IC90 (A375 [5]; read-out: MLN8237 IC90, A375, TAK-733 1 nM): > 5 µM
IC50 (SKMEL-2 [6]; read-out: MLN8237 IC50, SKMEL-2, TAK-733 0.0 nM): 0.067 µM
IC50 (SKMEL-2 [6]; read-out: MLN8237 IC50, SKMEL-2, TAK-733 0.01 nM): 0.066 µM
IC50 (SKMEL-2 [6]; read-out: MLN8237 IC50, SKMEL-2, TAK-733 0.1 nM): 0.054 µM
IC50 (SKMEL-2 [6]; read-out: MLN8237 IC50, SKMEL-2, TAK-733 1 nM): 0.048 µM
IC50 (SKMEL-2 [6]; read-out: MLN8237 IC50, SKMEL-2, TAK-733 10 nM): 0.016 µM
IC90 (SKMEL-2 [6]; read-out: MLN8237 IC90, SKMEL-2, TAK-733 0.0 nM): > 5 µM
IC90 (SKMEL-2 [6]; read-out: MLN8237 IC90, SKMEL-2, TAK-733 0.01 nM): > 5 µM
IC90 (SKMEL-2 [6]; read-out: MLN8237 IC90, SKMEL-2, TAK-733 0.1 nM): > 5 µM
IC90 (SKMEL-2 [6]; read-out: MLN8237 IC90, SKMEL-2, TAK-733 1 nM): > 5 µM
IC90 (SKMEL-2 [6]; read-out: MLN8237 IC90, SKMEL-2, TAK-733 10 nM): 0.309 µM
IC50 (A2780 [7]; read-out: MLN8237 IC50, A2780, TAK-733 0.0 nM): 0.043 µM
IC50 (A2780 [7]; read-out: MLN8237 IC50, A2780, TAK-733 0.64 nM): 0.034 µM
IC50 (A2780 [7]; read-out: MLN8237 IC50, A2780, TAK-733 3.2 nM): 0.029 µM
IC50 (A2780 [7]; read-out: MLN8237 IC50, A2780, TAK-733 16 nM): 0.019 µM
IC50 (A2780 [7]; read-out: MLN8237 IC50, A2780, TAK-733 80 nM): 0.011 µM
IC90 (A2780 [7]; read-out: MLN8237 IC90, A2780, TAK-733 0.0 nM): > 5 µM
IC90 (A2780 [7]; read-out: MLN8237 IC90, A2780, TAK-733 0.64 nM): > 5 µM
IC90 (A2780 [7]; read-out: MLN8237 IC90, A2780, TAK-733 3.2 nM): 0.288 µM
IC90 (A2780 [7]; read-out: MLN8237 IC90, A2780, TAK-733 16 nM): 0.028 µM
IC90 (A2780 [7]; read-out: MLN8237 IC90, A2780, TAK-733 80 nM): 0.046 µM
Percentage of cells with greater than 4N DNA (SKMEL-2 [8]; SKMEL-2, 24 Hr, DMSO 3.1): 14.5%
Percentage of cells with greater than 4N DNA (SKMEL-2 [8]; SKMEL-2, 48 Hr, DMSO 2.7): 36.4%
